Measurements taken from the supplement of paper PMC10307832.

Columns and labels:
Test in all cases: relative viability (nuclei count vs DMSO), 5 days (fraction); higher = more cells survive
Carboplatin + Trametinib = compound: C1CC(C1)(C(=O)O)C(=O)O.[NH2-].[NH2-].[Pt+2] [Carboplatin] + CC(=O)Nc1cccc(-n2c(=O)n(C3CC3)c(=O)c3c(Nc4ccc(I)cc4F)n(C)c(=O)c(C)c32)c1 [Trametinib] (partner 0.02 µM)
In short: (§1)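 Lung cancer cell lines were seeded in 1536-well plates and dosed by pin tool the next day, with either a single drug or a fixed anchor-drug dose combined with five library-drug doses (not always all listed) spaced in √10 steps. Five days later, one step fixed the cells and stained their nuclei (final 0.05% Triton X-100, 1% formaldehyde, 1 ug/ml Hoechst), and nuclei were counted on 4× images. Relative viability is the nuclei count in treated wells divided by the count in vehicle wells, and each value is the median of duplicate plates.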

GSK126 + Olaparib = compound: CC[C@H](C)N1C=C(C2=C(C=C(C=C21)C3=CN=C(C=C3)N4CCNCC4)C(=O)NCC5=C(C=C(NC5=O)C)C)C [GSK126] + O=C(c1cc(Cc2n[nH]c(=O)c3ccccc23)ccc1F)N1CCN(C(=O)C2CC2)CC1 [Olaparib] (partner 8 µM)
In short: as §1

Carboplatin + Crizotinib = compound: C1CC(C1)(C(=O)O)C(=O)O.[NH2-].[NH2-].[Pt+2] [Carboplatin] + C[C@@H](Oc1cc(-c2cnn(C3CCNCC3)c2)cnc1N)c1c(Cl)ccc(F)c1Cl [Crizotinib] (partner 1 µM)
In short: as §1

GSK126 + Pictilisib = compound: CC[C@H](C)N1C=C(C2=C(C=C(C=C21)C3=CN=C(C=C3)N4CCNCC4)C(=O)NCC5=C(C=C(NC5=O)C)C)C [GSK126] + CS(=O)(=O)N1CCN(Cc2cc3nc(-c4cccc5[nH]ncc45)nc(N4CCOCC4)c3s2)CC1 [Pictilisib] (partner 1 µM)
In short: as §1

Cell Line | relative viability (Carboplatin + Trametinib; first compound 0.08 µM) | relative viability (Carboplatin + Trametinib; first compound 0.253 µM) | relative viability (Carboplatin + Trametinib; first compound 0.8 µM) | relative viability (Carboplatin + Trametinib; first compound 2.53 µM) | relative viability (Carboplatin + Trametinib; first compound 8 µM) | relative viability (GSK126 + Olaparib; first compound 0.08 µM) | relative viability (GSK126 + Olaparib; first compound 0.253 µM) | relative viability (GSK126 + Olaparib; first compound 0.8 µM) | relative viability (GSK126 + Olaparib; first compound 2.53 µM) | relative viability (GSK126 + Olaparib; first compound 8 µM) | relative viability (Carboplatin + Crizotinib; first compound 0.08 µM) | relative viability (Carboplatin + Crizotinib; first compound 0.253 µM) | relative viability (Carboplatin + Crizotinib; first compound 0.8 µM) | relative viability (Carboplatin + Crizotinib; first compound 2.53 µM) | relative viability (Carboplatin + Crizotinib; first compound 8 µM) | relative viability (GSK126 + Pictilisib; first compound 0.08 µM) | relative viability (GSK126 + Pictilisib; first compound 0.253 µM) | relative viability (GSK126 + Pictilisib; first compound 0.8 µM) | relative viability (GSK126 + Pictilisib; first compound 2.53 µM) | relative viability (GSK126 + Pictilisib; first compound 8 µM)
SW 900 | 0.794 | 0.904 | 1.07 | 0.7 | 0.759 | 0.909 | 0.751 | 0.866 | 0.885 | 0.888 |  |  |  |  |  |  |  |  |  | 
NCI-H2342 | 0.825 | 0.891 | 0.903 | 0.924 | 0.81 | 0.447 | 0.501 | 0.392 | 0.424 | 0.469 |  |  |  |  |  |  |  |  |  | 
NCI-H441 | 0.556 | 0.448 | 0.479 | 0.467 | 0.371 | 0.612 | 0.561 | 0.566 | 0.539 | 0.44 | 0.72 | 0.925 | 0.618 | 0.791 | 0.655 | 0.495 | 0.638 | 0.432 | 0.539 | 0.428
NCI-H3122 | 0.227 | 0.259 | 0.251 | 0.251 | 0.226 | 0.713 | 0.712 | 0.628 | 0.654 | 0.628 | 0.3 | 0.299 | 0.275 | 0.323 | 0.28 | 0.61 | 0.597 | 0.595 | 0.684 | 0.703
HCC-78 | 0.828 | 0.587 | 0.653 | 0.674 | 0.73 | 0.742 | 0.822 | 0.807 | 0.822 | 0.617 | 0.367 | 0.325 | 0.315 | 0.308 | 0.304 | 0.25 | 0.201 | 0.178 | 0.217 | 0.237
HCC-827 | 0.579 | 0.517 | 0.557 | 0.497 | 0.57 | 0.725 | 0.642 | 0.617 | 0.726 | 0.601 | 0.97 | 0.93 | 0.916 | 0.816 | 0.87 | 1.19 | 1.25 | 1.01 | 0.953 | 1.12
Calu-6 |  |  |  |  |  | 0.604 | 0.664 |  | 0.612 | 0.577 | 0.916 | 0.924 | 0.763 | 0.639 | 0.338 | 1.03 | 0.987 | 0.913 | 1.07 | 0.967
NCI-H2009 | 0.346 | 0.295 | 0.243 | 0.249 | 0.238 | 0.755 | 0.653 | 0.714 | 0.588 | 0.713 | 1.06 | 1 | 0.987 | 0.965 | 0.611 | 1.14 | 0.69 | 0.827 | 0.908 | 0.908
NCI-H322M | 0.543 | 0.488 | 0.537 | 0.552 | 0.525 | 0.818 | 0.807 | 0.806 | 0.829 | 0.78 | 1.07 | 0.964 | 0.963 | 0.926 | 0.854 | 0.431 | 0.517 | 0.507 | 0.509 | 0.454
NCI-H23 | 0.414 | 0.425 | 0.364 | 0.366 | 0.389 | 0.299 | 0.361 | 0.312 | 0.3 | 0.263 | 0.638 | 0.542 | 0.516 | 0.488 | 0.39 | 0.535 | 0.568 | 0.418 | 0.466 | 0.512
NCI-H1648 | 0.527 | 0.567 | 0.45 | 0.382 | 0.473 | 1.01 | 1.22 | 0.774 | 1.1 | 0.908 |  |  |  |  |  |  |  |  |  | 
NCI-H358 | 0.145 | 0.148 | 0.121 | 0.16 | 0.14 | 0.705 | 0.723 | 0.555 | 0.613 | 0.751 | 0.596 | 0.744 | 0.629 | 0.588 | 0.525 | 0.32 | 0.347 | 0.37 | 0.332 | 0.442
NCI-H1944 | 0.439 | 0.419 | 0.439 | 0.362 | 0.338 | 0.431 | 0.376 | 0.402 | 0.408 | 0.387 | 1.05 | 1.17 | 1 | 0.916 | 0.788 | 0.356 | 0.349 | 0.367 | 0.36 | 0.391
NCI-H1755 | 0.823 | 0.78 | 0.752 | 0.82 | 0.7 | 0.9 | 0.922 | 0.877 | 0.826 | 0.822 | 0.868 | 0.935 | 0.853 | 0.848 | 0.743 | 0.512 | 0.451 | 0.459 | 0.46 | 0.384
ABC-1 |  |  |  |  |  | 0.573 | 0.698 | 0.869 | 0.691 | 0.659 | 1.35 | 1.18 | 0.885 | 0.91 | 0.498 | 0.972 | 1.03 | 0.732 | 0.858 | 0.687
NCI-H1563 |  |  |  |  |  |  |  |  |  |  | 0.975 | 0.901 | 0.834 | 0.853 | 0.854 | 0.616 | 0.715 | 0.695 | 0.648 | 0.551
NCI-H522 | 0.724 | 0.876 | 0.632 | 0.781 | 0.762 | 0.61 | 0.599 | 0.639 | 0.611 | 0.699 |  |  |  |  |  |  |  |  |  | 
IA-LM |  |  |  |  |  | 1.03 | 0.832 | 0.99 | 0.759 | 0.75 | 0.772 | 0.818 | 0.767 | 0.694 | 0.486 | 0.359 | 0.286 | 0.301 | 0.443 | 0.36
NCI-H1395 | 1.05 | 1.03 | 1.01 | 0.742 | 0.618 | 0.468 | 0.465 | 0.438 | 0.456 | 0.414 |  |  |  |  |  | 0.653 | 0.653 | 0.798 | 0.699 | 0.726
